{"source": "paper PMC5651866", "about": "“Halogenated Chrysins Inhibit Dengue and Zika Virus Infectivity” (Scientific Reports, 2017)", "key": {"ZIKV (SV0010/15)": {"system": "ZIKV (SV0010/15)", "test": "Antiviral efficacy (EC50) in virus infected LLC/MK2 cells, plaque assay", "type": "cell-based, Zika virus", "description": "Compound at various concentrations were added to virus infected LLC/MK2 cells and viral titers were accessed by plaque titration of supernatants as previously described.\nLLC/MK2 cells were seeded at 5 × 10^4 cells into each well of 24-well plate and incubated overnight at 37 °C under 5% CO2. Cells were infected with DENV2 at the multiplicity of infection (M.O.I.) of 0.1, unless indicated otherwise, for 1 h with gentle rocking every 15 min. Cells were washed with phosphate buffer saline (PBS) and incubated with 1 ml of MEM medium supplemented with 1% FBS as previously described. The compounds were prepared in dimethylsulfoxide (DMSO) at the indicated concentrations before addition to viral infected cells. Supernatants were collected after 5 day incubation and analyzed by plaque titration[9].\nCompounds were prepared in DMSO at 8–12 different concentrations and added to virus infected cells as previously described. Supernatants were collected and the EC50 values were calculated from nonlinear regression analysis."}, "[1]": {"test": "Stability of compound in DMSO at room temperature by 1H-NMR", "type": "physicochemical", "settings": "4 mM in DMSO, sampled at 24, 72, 120 h", "procedure": "The FV13 (6,8-dibromo-5,7-dihydroxyflavone) was tested for the stability by dissolving in DMSO at a concentration of 4 mM FV13 solution. The solution was incubated at room temperature and sampled out at 24, 72, and 120 hours for ^1H-NMR analysis."}, "[2]": {"system": "BHK-21/DENV2 replicon cells", "test": "Replicon inhibition assay, RT-qPCR of replicon RNA", "type": "cell-based", "settings": "Dengue virus, DENV2, BHK-21, 72 h, read-out: inhibition of DENV2 replicon replication", "procedure": "Next, we studied FV13 inhibition in a DENV2 replicon replication system to investigate whether translation and replication could be implicated as drug targets. BHK-21/DENV2 replicon cells[28] were treated with 5 and 10 µM FV13 and incubated for 72 h before measuring replication efficiency by quantifying replicon RNA. Ribavirin, a known dengue virus replication inhibitor[29], was used as a positive control.\n(§1) After supernatant collection, the remaining cells in experimental plates were extracted for viral RNAs using TRIzol reagent (Invitrogen, California, USA) according to the manufacturer’s protocol. The samples were loaded into the Direct-zol™ RNA MiniPrep (Zymo research, California, USA) and quantified by Nanodrop spectrophotometry (Eppendorf, New York, USA). The RT-qPCR was performed with a Step-OnePlus Real-Time PCR System (Applied Biosystems, California, USA.) with 1 × Power SYBRGreen PCR Master Mix, 400 nM each of capsid primers[40] or 250 nM of NS1 primers[41] and 0.1 µg of total RNA. The reactions were then cycled at 48 °C 30 min and 95 °C 10 min, followed by 45 cycles of 95 °C for 20 s (denaturation), 55 °C for 30 s (annealing), 72 °C for 30 s (extension). Each sample was analyzed in triplicated and results were confirmed by two independent experiments.\nBHK-21 cells expressing a DENV2 replicon (BHK-21/DENV2) were maintained in minimal essential medium (MEM) supplemented with 10% fetal bovine serum (FBS), and 0.3 mg/ml G418 (Bio Basic Canada, Ontario, Canada). The protocol was adapted from Boonyasuppayakorn et al., 2014 [28]. Briefly, cells (5 × 10^4/well) were seeded into 24-well plates and were incubated for 1 day at 37 °C in a humidified CO2 chamber followed by addition of the compounds in 1% DMSO at final concentrations of 5 µM and 10 µM. DMSO (1%) alone was used as the no-inhibitor control (0% inhibition) and the reference compound was ribavirin (TargetMol, Massachusetts, USA) at a final concentration of 5 µM or 10 µM. Cells were incubated at 37 °C for 72 h and lysed to quantify DENV2 replicons by RT-qPCR. Data were reported as percent inhibition compared with ribavirin, as a reference compound and DMSO, 0% inhibition. Results were confirmed by three independent experiments."}, "DENV2": {"system": "DENV2", "test": "Time-of-drug addition study (TOA) in DENV2 infected LLC/MK2 cells", "type": "cell-based, Dengue virus", "settings": "10 μM; for decrease of DENV2 plaque titer from DMSO-treated baseline: supernatants", "procedure": "To access the stage of the viral life cycle affected by FV13, we performed a time-of-addition assay. Briefly, FV13 (10 μM) was added to DENV2 infected LLC/MK2 cells at various time points as described in Methods section. DMSO was added in parallel as a control treatment. Supernatants were collected for plaque titration and cell lysates were collected for RT-qPCR analysis. […] If the drug was added at 12 hpi or later, only 1-log decrease was observed (Fig. 4A,B). […] The first molecular target could interact with FV13 earlier than 2 hpi and its effect was still visible until 8–10 hpi. The other target could locate at late post-replication steps such as assembly, maturation, or release because a 1-log discrepancy between plaque and RT-qPCR titers indicated genome replication was unaffected. Further investigations will reveal insights into the actual target of this compound.\nas §1\nLLC/MK2 cells were seeded in 24-well plate and incubated as previously described. Cells were then infected with DENV2 (M.O.I. of 0.1). FV13 (10 µM) was added at various time points, early time points (−1, 0, 2, 4, 6, 8, 10, and 12 hpi) and late time points (12, 14, 16, 20, and 24 hpi) and the plates were incubated for 5 days. Supernatants were collected to determine the viral titer by plaque titration assay and the cells were collected to determine viral RNA content by RT-qPCR. Results were confirmed by three independent experiments in which each time point was tested in duplicate."}, "[3]": {"test": "Cytotoxicity study (CellTiter 96 AQueous One) in THP-1 cells", "type": "cell-based", "settings": "human, THP-1 cells, read-out: Cells viability (%, means ± SEM) THP-1", "procedure": "(§2) The cytotoxicity of active compounds was tested on LLC-MK2, Vero, THP-1, HEK-293, HepG2 and C6/36 cell lines. Each cell line was seeded at 1 × 10^4 cells per well in 96-well plates and incubated overnight. The compounds were added at the indicated concentrations and the cells were incubated for 48 h, unless indicated otherwise. Cell viability was analyzed using CellTiter 96® AQueous One Solution Cell Proliferation Assay kit (Promega, Wisconsin-Madison, USA) according to manufacturer’s protocol. The plate was read at the A 450 in a VICTORTM × 3 microplate reader (PerkinElmer, Massachusetts, USA). Percent cell viability in compound-treated wells was calculated using reference DMSO-treated cells as a 100% cell viability control. The CC50 values of LLC/MK2 cells were calculated using nonlinear regression analysis. Results were reported as means and standard error of the means (SEM) of CC50 values of three independent experiments in which each drug concentration was tested in triplicate."}, "[4]": {"test": "Cytotoxicity study (CellTiter 96 AQueous One) in LLC/MK2 cells", "type": "cell-based", "settings": "rhesus monkey, LLC/MK2 cells", "procedure": "as §2"}, "LLC/MK2 cells": {"system": "LLC/MK2 cells", "test": "Cytotoxicity study (CellTiter 96 AQueous One) in LLC/MK2 cells", "type": "cell-based", "settings": "LLC/MK2 cell viability at 120 h versus 48 h; in words", "procedure": "as §2"}}, "data": [{"smiles": "O=c1cc(-c2ccccc2)oc2c(Br)c(O)c(Br)c(O)c12", "note": "[FV13, 6,8-dibromo-5,7-dihydroxyflavone]", "values": [{"measurement": "S.I. Selectivity index (CC50/EC50)", "setting": "ZIKV (SV0010/15); CC50 in LLC/MK2", "value": 27.02}, {"measurement": "EC50", "setting": "ZIKV (SV0010/15); Zika virus, LLC/MK2, plaque assay in 24-well plates", "value": "1.65 ± 0.86", "unit": "µM"}, {"measurement": "stability (no decomposition by NMR)", "setting": "[1]", "value": "at least 120 h"}, {"measurement": "inhibition at 5 µM", "setting": "[2]", "value": "83.4 ± 2.04", "unit": "%"}, {"measurement": "inhibition at 10 µM", "setting": "[2]", "value": "82.7 ± 4.01", "unit": "%"}, {"measurement": "decrease of DENV2 plaque titer from DMSO-treated baseline", "setting": "DENV2; drug added at 12 hpi or later", "value": 1, "unit": "log"}, {"measurement": "decrease of DENV2 plaque titer from DMSO-treated baseline", "setting": "DENV2; drug added between 2–10 hpi", "value": 2, "unit": "log"}, {"measurement": "intracellular viral RNA versus DMSO-treated samples", "setting": "DENV2; drug addition at 12–24 hpi, RT-qPCR, in words", "value": "no titer difference"}, {"measurement": "decrease of intracellular viral RNA", "setting": "DENV2; drug addition between 2–8 hpi, RT-qPCR", "value": 1, "unit": "log"}, {"measurement": "viability at 48 h, 10 µM", "setting": "[3]; 10 μM", "value": "> 100", "unit": "%"}, {"measurement": "viability at 48 h, 25 µM", "setting": "[3]; 25 μM", "value": "86.9 ± 2.1", "unit": "%"}, {"measurement": "viability at 48 h, 10 µM", "setting": "[4]; 10 μM, 48 h, read-out: Cells viability (%, means ± SEM) LLC/MK2", "value": "81 ± 2.69", "unit": "%"}, {"measurement": "viability at 48 h, 25 µM", "setting": "[4]; 25 μM, 48 h, read-out: Cells viability (%, means ± SEM) LLC/MK2", "value": "59.4 ± 2.42", "unit": "%"}, {"measurement": "CC50 at 48 h", "setting": "[4]; 48 h incubation, read-out: CC50 (cytotoxic concentration)", "value": "44.3 ± 2.9", "unit": "µM"}, {"measurement": "effect of long term incubation on cytotoxicity", "setting": "LLC/MK2 cells", "value": "similarly non-toxic at both 48 and 120 h"}]}]}
